Assay [1] relates to transgenic CD4^+ T cells. As to the kind of experiment: Neonatal thymus transplant under the kidney capsule of TCRα^−H2-M^−Ii^− recipients with selecting peptide. It counts as in vivo, mouse. An excerpt:
Since the selecting peptide is an agonist, in a specific embodiment of the present invention the observed phenomenon results from the expansion of a small number of peripheral transgenic CD4^+ T cells rather than from induced positive selection. To test this possibility, two types of experiments have been performed. In the first experiment, the PCC TgTCRα^−H-2M^−Ii^− mice were thymectomized and then injected with the PCC50V54A peptide. Two weeks after injection, these mice were sacrificed and the number of peripheral CD4^+ T cells was counted. […] In the second experiment, the neonatal thymi from TgTCRα^−H-2M^−Ii^− mice were transplanted under the kidney capsule of H-2M^−Ii^− TCRα^− mice, which are devoid of T cells. Two days after surgery, half of the recipient mice were injected with the selecting peptide. After 10 days, recipient mice were sacrificed and the presence of transgenic CD4^+ T cells in the transplanted thymus and lymph nodes was determined by FACS analysis. […] Apparently, CD4^+ T cells appear in the peripheral lymph nodes of PCC TgTCRα^−H-2M^−Ii^− injected with the PCC50V54A peptide as a result of positive selection by this peptide.
Peptide injections and surgical procedures. TCR^TgTCRα^− and TCR^TgTCRαH2-M^−Ii^− were injected i.p. with agonist and control peptides dissolved in PBS. After indicated time mice were sacrificed, thymus and lymph nodes were collected and single cell suspensions were prepared. Pups were injected with 2 μg of peptide subcutaneously 12-24 hours after birth and thymi were transplanted into recipient mice 24 hours after injection. […]
Since the selecting peptide is an agonist, one could argue that the observed phenomenon results from the expansion of a small number of peripheral transgenic CD4^+ T cells rather than from induced positive selection (Martin & Bevan, 1997). […] Two weeks after injection, the mice were sacrificed and the number of peripheral CD4^+ T cells was counted. […] After 10 days, recipient mice were sacrificed and the presence of transgenic CD4^+ T cells in the transplanted thymus and host lymph nodes was determined by FACS analysis. […]

Assay [2] has as its system transgenic CD4^+ thymocytes. Description: Positive selection of CD4^+ thymocytes after peptide injection into TCR^TgTCRα^−H2-M^−Ii^− mice (flow cytometry of thymus). It counts as in vivo, mouse. The text has this: Mice. The TCR genes were cloned from T cell hybridoma specific for analogs of the PCC(43-58) peptide and expressed in VA-hCD2 cassette (Ignatowicz et al., 1997; Kraj et al., 2001; Zhumabekov et al., 1995). All TCR transgenic mice were made by co-microinjection of the respective […] and TCRβ constructs into fertilized eggs of F1 (C57BL/6×CBA/Ca) mice. TCR Tg mice were crossed to C57B16/TCRα^− (Jackson Laboratory, ME) mice and to mice deficient in H2-M (kindly provided by E. Bikoff and R. Germain) and Ii (kindly provided by L. van Kaer) to obtain TCR^TgTCRα^− H2-M^−Ii^−.
Flow cytometry analysis. Monoclonal antibodies specific for CD4(RM4-5), CD8(53-6.7), VβB8(F23.1), CD69(H1.2F3), CD44(IM7) and CD62L(MEL-14) were purchased from PharMingen (San Diego, Calif.) and used according to manufacturer's recommendations. Cells were analyzed using a FACSCalibur instrument (Becton Dickinson, San Jose, Calif.) and CellQuest software. For intracellular stain cells were first stained for CD4 and CD8, fixed in 2% paraformaldehyde, permeabilized in 0.1% Tween-20 and stained with anti-bcl-2 antibody (Pharmingen) according to manufacturer instruction.
Peptide injections and surgical procedures. TCR^TgTCRα^− and TCR^TgTCRαH2-M^−Ii^− were injected i.p. with agonist and control peptides dissolved in PBS. After indicated time mice were sacrificed, thymus and lymph nodes were collected and single cell suspensions were prepared. Pups were injected with 2 μg of peptide subcutaneously 12-24 hours after birth and thymi were transplanted into recipient mice 24 hours after injection. 5-8 week old TCR^TgTCRα^− H2-M^−Ii^− mice were used for thymectomy or as thymic transplant recipients. Surgical procedures were performed as described (Coligan et al., 1997). Mice were handled according with the institutional guidance.
Background: Flow cytometry measures light scatter and fluorescence of single cells or particles in a stream.

In assay [3] the test system is peptide selected CD4^+ cells. Description: Antigen response (proliferation) of lymph node CD4^+ cells from peptide-injected TCR^TgTCRα^−H2-M^−Ii^− mice. It counts as cell-based, mouse. The method, then: Antigen response of TCR transgenic cells. Proliferation of lymph node cells isolated from TCR^TgTCRα^−and TCR^TgTCRα^−2-M^−Ii^− mice injected with the selecting peptide was measured in response to antigen. Response of the TCR^TgTCRα^− lymph node cells to different agonist peptides was measured by proliferation assay in a 96-well plate. 10^5 responder cells were stimulated with peptides presented by 5×10^5 irradiated C57BL6 splenocytes. Agonist peptides were used at concentrations of 0.01, 0.1, 0.5, 1.0, 2.5, 5.0, 10.0 and 20.0 μM. After 3 days cells were pulsed with 1 μCi of [^3H]thymidine added to each well and after 18 hours thymidine incorporation was measured. The sequences of peptides used were: PCC50V (AEGFSYTVANKNKGIT), PCC50L (AEGFSYTLANKNKGIT), PCC50V54A (AEGFSYTVANKAKGIT), PCC46A49A50V54A (AEGASYAVANKAKGIT), PCC50F54A (AEGFSYTFANKAKGIT), neutral ceramidase (AGFFQYTLYILASEG) and IgGVH (NADFKTPATLTVDKA). […] Proliferation was measured after 3 days by thymidine incorporation by pulsing cells with 1 μCi of [^3H] thymidine for 18 hours. […] For antagonism assays the percent of proliferation inhibition was calculated as 100-100*(thymidine incorporation in the presence of antagonist/thymidine incorporation in the absence of antagonist) (Lyons et al., 1996).

The mark [4] stands for this setting: one i.p. injection of 50 μg, 24 hours.

“Also recorded” adds a separate entry of the source.

“AEGFSYTVANKAKGIT [PCC50V54A, analog of pigeon cytochrome C peptide PCC(43-58)]”: the “presence of transgenic CD4^+ T cells in transplanted thymus and host lymph nodes” value in assay [1] (donor neonates injected (2 μg) 24 hours before transplantation) is reported as “found only in mice grafted with thymi from neonates injected with the selecting peptide; also recorded: repopulate peripheral lymph nodes”. In addition, the “presence of transgenic CD4^+ T cells in transplanted thymus and lymph nodes” value in assay [1] (recipients injected two days after surgery, analysed after 10 days) is “found only in thymus-grafted mice, injected with the selecting peptide”. Moreover, the “total number of lymph node cells” value in assay [1] (recipients of neonatal thymi injected with the selecting peptide, two weeks after transplantation) is 25.5×10^6±4.2. In addition, the “cellularity of the thymus and number of apoptotic cells (TUNNEL assay and annexin V staining)” value in assay [2] (20 μg, compared with controls) is recorded as “the same”. Moreover, the “expression of TCR, CD69, bcl-2 on thymocytes” value in assay [2] (after injection of selecting peptide (20 μg, 48 hours)) is “became bcl-2+; also recorded: upregulated CD69 and bcl-2 expression; also recorded: upregulated TCR and CD69 expression; also recorded: Bcl-2 was upregulated”. In addition, in assay [2] (i.p., non-deleting dose (20 μg)), the “positive selection of transgenic thymocytes” value is recorded as “restored selection of CD4^+ single positive thymocytes”. Besides, the “CD25 phenotype of newly selected CD4^+ thymocytes” value in assay [2] (mouse, in vivo) is given as “CD25^−”. In assay [2] (setting [4]), the “differentiation of thymocytes into single positive CD4^+ cells” value is recorded as “differentiate into single positive CD4^+ cells” and the “total number of thymocytes” value is given as 161.5×10^6±54.4. Also, in assay [2] (one i.p. injection of 50 μg, 48 hours), the “total number of thymocytes” value is given as 142.5×10^6±44.9. The “duration of positive selection of CD4^+ thymocytes after a single injection” value in assay [2] (single injection) stood at 14 days. Besides, the “response of peptide selected CD4^+ cells to agonist peptides in vitro” value in assay [3] is “functional and respond to agonist peptides; also recorded: weakly respond in vitro”.

Values taken from US20030021796A1, “Method of enhancing T cell immunity by selection of antigen specific T cells” (priority 2001, published 2003).
